{"source": "patent US5106407A", "about": "“Iodones and methods for antimicrobial use” (priority 1989, dated 1992)", "key": {"Penicillium chrysogenum": {"system": "Penicillium chrysogenum", "assay": "minimum inhibitory concentration (MIC), agar dilution", "assay_type": "cell-based", "conditions": "ATCC 9480; malt yeast agar", "experimental": "(§1) The minimum inhibitory concentration (MIC) for the compound of Example 19, i.e., (2-nitrophenyl)-iodonium 2,2-dimethyl-4,6-dioxo-1,3-dioxan-5-ylide was determined for 9 bacteria (using nutrient agar) and 5 yeast and fungi (using malt yeast agar). A one percent solution of this test compound (i.e., the compound of Example 19) was prepared in a mixture of acetone-water. Nutrient agar was prepared at pH 6.8 using deionized water according to standard Difco procedures. Malt yeast agar was prepared by adding 3 g Bacto yeast extract and 42 g Bacto Malt agar per liter of deionized water. The agar (nutrient agar when testing with bacteria and malt yeast agar when testing with yeast and fungi) was dispensed in 30 mL aliquots into 25×200 millimeter (mm) test tubes, capped and autoclaved for 15 min at 115° C. The test tubes containing the agar were cooled in a water bath until the temperature of the agar was 48° C. and then an appropriate amount of the one percent solution of the test compound was added (except in the controls where no test compound was added with the acetone-water) to the respective test tubes so that final concentrations of 500, 250, 100, 50, 25, 10, 5, 2.5, 1.0 and 0 parts per million (ppm) of the test compound in the agar were obtained. The agar solutions were each mixed and poured into individual petri plates so that each petri plate contained agar having a known concentration of test compound dispersed therein. After drying for 24 hr, the petri plates were inoculated with bacteria when the petri plates contained nutrient broth agar or with fungi and yeast when the petri plates contained malt yeast agar.\n(§2) The petri plates were incubated at 30° C. for 48 hr and then read to determine if the test compound (i.e., the compound of Example 19) which was incorporated into the agar prevented growth of the respective bacteria. The minimum inhibitory concentration (MIC) for each bacteria was defined as the lowest concentration of the test compound which prevented growth of that bacteria.\n(§3) The inoculation with the fungi and yeast was accomplished as follows. Cultures of fungi and yeast were incubated for 7 days on malt yeast agar at 30° C. These cultures were used to prepare suspensions by the following procedure. A suspension of each organism was prepared by adding 10 mL of sterile saline and 10 microliters […] of Triton ×100 to the slant. The sterile saline/Triton ×100 solution was then agitated with a sterile swab to suspend the microorganism grown on the slant. Each resulting suspension was diluted into sterile saline (1 part suspension: 9 parts sterile saline). […] The petri plates were incubated at 30° C. and read after 48 hr for yeast and 72 hr for fungi."}, "Trichoderma viride": {"system": "Trichoderma viride", "assay": "minimum inhibitory concentration (MIC), agar dilution", "assay_type": "cell-based", "conditions": "ATCC 8678; malt yeast agar", "experimental": "as §1, §2, §3"}, "Aspergillus niger": {"system": "Aspergillus niger", "assay": "minimum inhibitory concentration (MIC), agar dilution", "assay_type": "cell-based", "conditions": "ATCC 16404; malt yeast agar", "experimental": "as §1, §2, §3"}, "Candida albicans": {"system": "Candida albicans", "assay": "minimum inhibitory concentration (MIC), agar dilution", "assay_type": "cell-based", "conditions": "ATCC 10231; malt yeast agar", "experimental": "as §1, §2, §3"}, "[1]": {"system": "mixture of bacterial organisms listed in Table 1", "assay": "latex preservation test", "experimental": "The latex was a vinylidene chloride-butadiene copolymer with a pH of 6.1.\nFifty gram aliquots of the latex were placed in sterile bottles and one hundred gram aliquots of the diluted cutting oil were placed in 250-mL Erlenmeyer flasks. An appropriate amount of a fresh 1 percent stock solution of (2-nitrophenyl)-iodonium 2,2-dimethyl-4,6-dioxo-1,3-dioxan-5-ylide in acetone-water was added to achieve the desired final concentrations (see Tables 5 and 6). A small portion of the respective latex or cutting oil preparation was then streaked onto Tryptic Soy Agar (TSA) petri plates using sterile cotton swabs to determine whether the preparations were sterile. If the particular preparation was sterile, it was then inoculated with an appropriate volume (0.1 mL for the latex and 0.2 mL for the cutting oil) of a mixture of equal aliquots of 24 hr cultures of each of the bacterial organisms listed in Table 1 (not the fungi and yeast). The latex samples were incubated at 30° C. and the cutting oils were agitated on a rotary shaker at room temperature. After 24 hr, all samples were again streaked on TSA. All plates were then incubated at 30° C. for 48 hr and then rated 1 to 10 according to the growth rating system described in Table 4.\nThe results from this first set of streaks after inoculation are listed in the columns labeled streak number 1 in Tables 5 and 6. Samples with a rating of 3 or less from streak number 1 were reinoculated as described for the first inoculation above. Samples with a rating of 4 or greater were not reinoculated. After another 24 hr all samples were again restreaked on TSA agar. The results from these second streaks were labeled streak number 2 in Tables 5 and 6. Samples were reinoculated and restreaked in this fashion for a maximum of 10 streaks. Any samples with two streaks in a row with a ten rating were not restreaked again."}}, "data": [{"smiles": "CC1(C)OC(=O)[C-]([I+]c2ccccc2[N+](=O)[O-])C(=O)O1", "note": "[Example 19, (2-Nitrophenyl)-iodonium 2,2-dimethyl-4,6-dioxo-1,3-dioxan-5-ylide]", "values": [{"measurement": "MIC", "setting": "Penicillium chrysogenum", "result": 100, "unit": "µg/mL"}, {"measurement": "MIC", "setting": "Trichoderma viride", "result": 250, "unit": "µg/mL"}, {"measurement": "MIC", "setting": "Aspergillus niger", "result": 250, "unit": "µg/mL"}, {"measurement": "MIC", "setting": "Candida albicans", "result": 100, "unit": "µg/mL"}, {"measurement": "growth rating", "setting": "[1]; 25 ppm, streak 1", "result": "1 (0)"}, {"measurement": "growth rating", "setting": "[1]; 25 ppm, streak 2", "result": 9}, {"measurement": "growth rating", "setting": "[1]; 25 ppm, streak 3", "result": "1 (0)"}, {"measurement": "growth rating", "setting": "[1]; 25 ppm, streak 4", "result": "1 (0)"}, {"measurement": "growth rating", "setting": "[1]; 25 ppm, streak 5", "result": "1 (0)"}, {"measurement": "growth rating", "setting": "[1]; 25 ppm, streak 6", "result": "1 (0)"}, {"measurement": "growth rating", "setting": "[1]; 25 ppm, streak 7", "result": "1 (0)"}, {"measurement": "growth rating", "setting": "[1]; 25 ppm, streak 8", "result": "1 (0)"}, {"measurement": "growth rating", "setting": "[1]; 50 ppm, streak 1", "result": "1 (0)"}, {"measurement": "growth rating", "setting": "[1]; 50 ppm, streak 3", "result": "1 (0)"}, {"measurement": "growth rating", "setting": "[1]; 50 ppm, streak 4", "result": "1 (0)"}, {"measurement": "growth rating", "setting": "[1]; 50 ppm, streak 5", "result": "1 (0)"}, {"measurement": "growth rating", "setting": "[1]; 50 ppm, streak 6", "result": "1 (0)"}, {"measurement": "growth rating", "setting": "[1]; 50 ppm, streak 7", "result": "1 (0)"}, {"measurement": "growth rating", "setting": "[1]; 50 ppm, streak 8", "result": "1 (0)"}, {"measurement": "growth rating", "setting": "[1]; 50 ppm, streak 9", "result": "1 (0)"}, {"measurement": "growth rating", "setting": "[1]; 50 ppm, streak 10", "result": "1 (0)"}, {"measurement": "growth rating", "setting": "[1]; 100 ppm, streak 1", "result": "1 (0)"}, {"measurement": "growth rating", "setting": "[1]; 100 ppm, streak 3", "result": "1 (0)"}, {"measurement": "growth rating", "setting": "[1]; 100 ppm, streak 4", "result": "1 (0)"}, {"measurement": "growth rating", "setting": "[1]; 100 ppm, streak 5", "result": "1 (0)"}, {"measurement": "growth rating", "setting": "[1]; 100 ppm, streak 6", "result": "1 (0)"}, {"measurement": "growth rating", "setting": "[1]; 100 ppm, streak 7", "result": "1 (0)"}, {"measurement": "growth rating", "setting": "[1]; 100 ppm, streak 8", "result": "1 (0)"}, {"measurement": "growth rating", "setting": "[1]; 100 ppm, streak 9", "result": "1 (0)"}, {"measurement": "growth rating", "setting": "[1]; 100 ppm, streak 10", "result": "1 (0)"}, {"measurement": "growth rating", "setting": "[1]; 250 ppm, streak 1", "result": "1 (0)"}, {"measurement": "growth rating", "setting": "[1]; 250 ppm, streak 2", "result": "1 (0)"}, {"measurement": "growth rating", "setting": "[1]; 250 ppm, streak 3", "result": "1 (0)"}, {"measurement": "growth rating", "setting": "[1]; 250 ppm, streak 4", "result": "1 (0)"}, {"measurement": "growth rating", "setting": "[1]; 250 ppm, streak 5", "result": "1 (0)"}, {"measurement": "growth rating", "setting": "[1]; 250 ppm, streak 6", "result": "1 (0)"}, {"measurement": "growth rating", "setting": "[1]; 250 ppm, streak 7", "result": "1 (0)"}, {"measurement": "growth rating", "setting": "[1]; 250 ppm, streak 8", "result": "1 (0)"}, {"measurement": "growth rating", "setting": "[1]; 250 ppm, streak 9", "result": "1 (0)"}, {"measurement": "growth rating", "setting": "[1]; 250 ppm, streak 10", "result": "1 (0)"}, {"measurement": "growth rating", "setting": "[1]; 500 ppm, streak 1", "result": "1 (0)"}, {"measurement": "growth rating", "setting": "[1]; 500 ppm, streak 2", "result": "1 (0)"}, {"measurement": "growth rating", "setting": "[1]; 500 ppm, streak 3", "result": "1 (0)"}, {"measurement": "growth rating", "setting": "[1]; 500 ppm, streak 4", "result": "1 (0)"}, {"measurement": "growth rating", "setting": "[1]; 500 ppm, streak 5", "result": "1 (0)"}, {"measurement": "growth rating", "setting": "[1]; 500 ppm, streak 6", "result": "1 (0)"}, {"measurement": "growth rating", "setting": "[1]; 500 ppm, streak 7", "result": "1 (0)"}, {"measurement": "growth rating", "setting": "[1]; 500 ppm, streak 8", "result": "1 (0)"}, {"measurement": "growth rating", "setting": "[1]; 500 ppm, streak 9", "result": "1 (0)"}, {"measurement": "growth rating", "setting": "[1]; 500 ppm, streak 10", "result": "1 (0)"}, {"measurement": "growth rating", "setting": "[1]; 1000 ppm, streak 1", "result": "1 (0)"}, {"measurement": "growth rating", "setting": "[1]; 1000 ppm, streak 2", "result": "1 (0)"}, {"measurement": "growth rating", "setting": "[1]; 1000 ppm, streak 3", "result": "1 (0)"}, {"measurement": "growth rating", "setting": "[1]; 1000 ppm, streak 4", "result": "1 (0)"}, {"measurement": "growth rating", "setting": "[1]; 1000 ppm, streak 5", "result": "1 (0)"}, {"measurement": "growth rating", "setting": "[1]; 1000 ppm, streak 6", "result": "1 (0)"}, {"measurement": "growth rating", "setting": "[1]; 1000 ppm, streak 7", "result": "1 (0)"}, {"measurement": "growth rating", "setting": "[1]; 1000 ppm, streak 8", "result": "1 (0)"}, {"measurement": "growth rating", "setting": "[1]; 1000 ppm, streak 9", "result": "1 (0)"}, {"measurement": "growth rating", "setting": "[1]; 1000 ppm, streak 10", "result": "1 (0)"}]}]}
